Data reported in patent publication US9284283B2, “Macrocyclic compounds for modulating IL-17” (ENSEMBLE THERAPEUTICS CORPORATION, priority 2012, dated 2016).

Target: T1, IL17A (Homo sapiens, UniProt Q16552)
T1 sequence (Q16552 24-155): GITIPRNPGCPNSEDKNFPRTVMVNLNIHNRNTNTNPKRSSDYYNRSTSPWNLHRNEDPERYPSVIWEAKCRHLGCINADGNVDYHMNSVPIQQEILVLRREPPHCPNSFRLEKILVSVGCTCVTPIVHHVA
Assay: Surface Plasmon Resonance (SPR) analysis of compound interactions with IL17A
Conditions: SPR binding to IL17A
Experimental: SPR analysis was carried out with a GE Healthcare (Piscataway, N.J.) Biacore X100 system. Typically, the chip (NTA Biacore Biosensor chip; GE Healthcare BR-1000-34) was first conditioned by injection of 0.35 M EDTA, which also served to remove any immobilized proteins from previous runs. Before immobilization of the recombinant 6-His-tagged IL17, the chip was washed with 0.5 mM nickel chloride in NTA buffer (10 mM HEPES buffer, 0.15 M sodium chloride, 10 μM ethylene diamine tetraacetic acid, 0.005% v/v surfactant P20 (GE Healthcare BR-1000-54)) to form a nickel chelate on the chip. IL17 protein was immobilized onto a NTA chip through its 6-His tag. IL17A was typically injected at 0.25 μM for 60-120 seconds, followed by a stabilization step washing with NTA+0.5% DMSO for 120 seconds or longer.
Five 2-fold or 3-fold serial dilutions of test compound were injected serially onto the chip. All steps were conducted using NTA buffer containing 0.5% v/v dimethylsulfoxide (DMSO). Compounds were diluted from stock solutions of 10 mM concentration in 100% DMSO with NTA buffer to obtain 50 μM solutions in NTA+0.5% DMSO. Subsequent 2× or 3× dilutions were made in NTA+0.5% DMSO. Compound was generally injected for 180 seconds followed by washing the chip in buffer alone for 120 seconds. The rate of refractive index change (RU units/time) and the maximum extend of RU change was measured during the “on” phase of analyte injection, followed by measuring the rate during the “off” phase.
Kinetic parameter fits were conducted using the Biacore SPR Evaluation Program (GE Healthcare) for 1:1 molecular binding fits, after subtracting the baseline average of 2 or more runs in which no analyte was injected. This program then reports the best fit average for the “on” rate (Ka), the “off” rate (Kd) and the dissociation constant (KD) (Chaiken, I et al., Anal Biochem 201, 197-210 (1992)). A separate program in the Biacore SPR Evaluation Program then calculates the best fit for Kd based upon the extent of binding alone (RU units bound) at each concentration of analyte and reports the best fit Kd by best fit to a Lineweaver-Burke plot. Typically, the Kd value calculated through both means agreed within a factor of three.
The presence and activity of IL17 on the NTA chip was routinely confirmed three ways: • 1) An increase in response units (RU) upon immobilization confirms that the IL17 was immobilized on the chip; • 2) Anti-IL17 was also injected on the chip to confirm the presence of IL17; and • 3) IL17R was injected onto the chip to confirm that the immobilized IL17 retained its binding activity for its receptor. Negative controls to access specificity for compound binding were conducted by immobilizing unrelated, but his-tagged, proteins (such as cyclophilin D) and conducting the same analysis as done with IL17A.

SMILES | Kd
COC(=O)[C@@H]1CCCCNC(=O)CCCNC(=O)[C@@H](Cc2ccc(NC(=O)[C@H](Cc3ccc(-c4ccccc4)cc3)NC(=O)Cc3ccccc3)cc2)NC(=O)CC2(CCCC2)CC(=O)N1 [Compound 124] | 100 to 1000 nM
COC(=O)[C@@H]1CCCCNC(=O)CCCNC(=O)[C@@H](Cc2ccc(NC(=O)[C@H](Cc3ccc(-c4ccccc4)cc3)NC(=O)c3ccccc3)cc2)NC(=O)CC2(CCCC2)CC(=O)N1 [Compound 125] | 100 to 1000 nM
COC(=O)[C@@H]1CCCCNC(=O)CCCNC(=O)[C@@H](Cc2ccc(NC(=O)[C@H](Cc3ccccc3C)NC(=O)Cc3ccccc3)cc2)NC(=O)CC2(CCCC2)CC(=O)N1 [Compound 126] | 100 to 1000 nM
COC(=O)[C@@H]1CCCCNC(=O)CCCNC(=O)[C@@H](Cc2ccc(NC(=O)[C@H](Cc3ccccc3C)NC(=O)c3ccccc3)cc2)NC(=O)CC2(CCCC2)CC(=O)N1 [Compound 127] | 100 to 1000 nM
COC(=O)[C@@H]1CCCCNC(=O)CCCNC(=O)[C@@H](Cc2ccc(NC(=O)[C@H](Cc3ccccc3F)NC(=O)c3ccccc3)cc2)NC(=O)CC2(CCCC2)CC(=O)N1 [Compound 128] | 100 to 1000 nM
COC(=O)[C@@H]1Cc2ccc(cc2)NC(=O)CCCNC(=O)[C@@H](Cc2ccc(NC(=O)[C@H](Cc3ccccc3F)NC(=O)c3ccccc3)cc2)NC(=O)CC2(CCCC2)CC(=O)N1 [Compound 134] | 100 to 1000 nM
COC(=O)[C@@H]1Cc2ccc(cc2)NC(=O)CCCNC(=O)[C@@H](Cc2ccc(NC(=O)[C@H](Cc3ccccc3F)NC(=O)Cc3ccccc3)cc2)NC(=O)CC2(CCCC2)CC(=O)N1 [Compound 135] | 100 to 1000 nM
COC(=O)[C@H]1CCCCNC(=O)CCCNC(=O)[C@@H](Cc2ccc(NC(=O)[C@H](Cc3ccccc3F)NC(=O)c3ccccc3)cc2)NC(=O)CC2(CCCC2)CC(=O)N1 [Compound 136] | < 100 nM
COC(=O)[C@@H]1CCCCNC(=O)CCCNC(=O)[C@H](Cc2ccc(NC(=O)[C@H](Cc3ccccc3F)NC(=O)c3ccccc3)cc2)NC(=O)CC2(CCCC2)CC(=O)N1 [Compound 137] | 100 to 1000 nM
COC(=O)[C@H]1CCCCNC(=O)CCCNC(=O)[C@@H](Cc2ccc(NC(=O)[C@H](Cc3ccccc3)NC(=O)Cc3ccccc3)cc2)NC(=O)CC2(CCCC2)CC(=O)N1 [Compound 138] | 100 to 1000 nM
COC(=O)[C@H]1CCCCNC(=O)CCCNC(=O)[C@@H](Cc2ccc(NC(=O)[C@H](Cc3ccccc3)NC(=O)c3ccccc3)cc2)NC(=O)CC2(CCCC2)CC(=O)N1 [Compound 139] | 100 to 1000 nM
COC(=O)[C@@H]1CCCCNC(=O)CCCNC(=O)[C@@H](Cc2ccc(NC(=O)[C@H](Cc3ccccc3)NC(=O)Cc3ccc(C(F)(F)F)cc3)cc2)NC(=O)CC2(CCCC2)CC(=O)N1 [Compound 140] | 100 to 1000 nM
COC(=O)[C@H]1CCCCNC(=O)C(C)(C)NC(=O)[C@@H](Cc2ccc(NC(=O)[C@H](Cc3ccccc3Cl)NC(=O)Cc3ccccc3)cc2)NC(=O)CC2(CCCC2)CC(=O)N1 [Compound 145] | < 100 nM
COC(=O)[C@H]1CCCCNC(=O)C(C)(C)NC(=O)[C@@H](Cc2ccc(NC(=O)[C@H](Cc3ccccc3Cl)NC(=O)c3ccccc3)cc2)NC(=O)CC2(CCCC2)CC(=O)N1 [Compound 146] | < 100 nM
COC(=O)[C@H]1CCCCNC(=O)[C@H](CO)NC(=O)[C@@H](Cc2ccc(NC(=O)[C@H](Cc3ccccc3Cl)NC(=O)Cc3ccccc3)cc2)NC(=O)CC2(CCCC2)CC(=O)N1 [Compound 147] | 100 to 1000 nM
COC(=O)[C@H]1CCCCNC(=O)[C@H](CO)NC(=O)[C@@H](Cc2ccc(NC(=O)[C@H](Cc3ccccc3Cl)NC(=O)c3ccccc3)cc2)NC(=O)CC2(CCCC2)CC(=O)N1 [Compound 148] | 100 to 1000 nM
COC(=O)[C@H]1CCCCNC(=O)CNC(=O)[C@@H](Cc2ccc(NC(=O)[C@H](Cc3ccccc3F)NC(=O)Cc3ccccc3)cc2)NC(=O)CC2(CCCC2)CC(=O)N1 [Compound 149] | < 100 nM
COC(=O)[C@H]1CCCCNC(=O)CNC(=O)[C@@H](Cc2ccc(NC(=O)[C@H](Cc3ccccc3F)NC(=O)c3ccccc3)cc2)NC(=O)CC2(CCCC2)CC(=O)N1 [Compound 150] | < 100 nM

SMILES | Kd
COC(=O)[C@@H]1CCCCNC(=O)CNC(=O)[C@@H](Cc2ccc(NC(=O)[C@H](Cc3ccccc3F)NC(=O)c3ccccc3)cc2)NC(=O)CC2(CCCC2)CC(=O)N1 [Compound 151] | < 100 nM
CC(=O)N[C@@H](Cc1ccccc1Cl)C(=O)Nc1ccc(C[C@H]2NC(=O)CC3(CCCC3)CC(=O)NCCCNC(=O)CNC2=O)cc1 [Compound 152] | 100 to 1000 nM
CC(=O)N[C@@H](Cc1ccccc1Cl)C(=O)Nc1ccc(C[C@H]2NC(=O)CC3(CCCC3)CC(=O)NCCCCCNC(=O)CCNC2=O)cc1 [Compound 154] | < 100 nM
CC(=O)N[C@@H](Cc1ccccc1Cl)C(=O)Nc1ccc(C[C@H]2NC(=O)CC3(CCCC3)CC(=O)NCCCCCNC(=O)CCCNC2=O)cc1 [Compound 155] | < 100 nM
O=C1CNC(=O)[C@@H](Cc2ccc(NC(=O)[C@H](Cc3ccccc3Cl)NC(=O)Cc3ccccc3)cc2)NC(=O)CC2(CCCC2)CC(=O)NCCCN1 [Compound 156] | < 100 nM
O=C1CCNC(=O)[C@@H](Cc2ccc(NC(=O)[C@H](Cc3ccccc3Cl)NC(=O)Cc3ccccc3)cc2)NC(=O)CC2(CCCC2)CC(=O)NCCCN1 [Compound 157] | < 100 nM
O=C1CCNC(=O)[C@@H](Cc2ccc(NC(=O)[C@H](Cc3ccccc3Cl)NC(=O)Cc3ccccc3)cc2)NC(=O)CC2(CCCC2)CC(=O)NCCCCCN1 [Compound 160] | < 100 nM
O=C1CCCNC(=O)[C@@H](Cc2ccc(NC(=O)[C@H](Cc3ccccc3Cl)NC(=O)Cc3ccccc3)cc2)NC(=O)CC2(CCCC2)CC(=O)NCCCCCN1 [Compound 161] | < 100 nM
O=C1CNC(=O)[C@@H](Cc2ccc(NC(=O)[C@H](Cc3ccccc3Cl)NC(=O)Cc3ccccc3)cc2)NC(=O)CC2(CCCC2)CC(=O)NCCCCN1 [Compound 162] | < 100 nM
CC(=O)N[C@@H](Cc1ccccc1Cl)C(=O)Nc1ccc(C[C@H]2NC(=O)CC3(CCCC3)CC(=O)NCCCCNC(=O)CNC2=O)cc1 [Compound 163] | < 100 nM
CC(=O)N[C@@H](Cc1ccccc1Cl)C(=O)Nc1ccc(C[C@H]2NC(=O)CC3(CCCC3)CC(=O)NCCCCNC(=O)CCNC2=O)cc1 [Compound 165] | < 100 nM
O=C1CCCNC(=O)[C@@H](Cc2ccc(NC(=O)[C@H](Cc3ccccc3Cl)NC(=O)Cc3ccccc3)cc2)NC(=O)CC2(CCCC2)CC(=O)NCCCCN1 [Compound 166] | < 100 nM
CC(=O)N[C@@H](Cc1ccccc1Cl)C(=O)Nc1ccc(C[C@H]2NC(=O)CC3(CCCC3)CC(=O)NCCCCNC(=O)CCCNC2=O)cc1 [Compound 167] | < 100 nM
O=C1CCNC(=O)[C@@H](Cc2ccc(NC(=O)[C@H](Cc3ccccc3Cl)NC(=O)Cc3ccccc3)cc2)NC(=O)CC2(CCCC2)CC(=O)N(CCO)CCCCCN1 [Compound 170] | < 100 nM
CC(=O)N[C@@H](Cc1ccccc1Cl)C(=O)Nc1ccc(C[C@H]2NC(=O)CC3(CCCC3)CC(=O)N(CCO)CCCCCNC(=O)CCNC2=O)cc1 [Compound 171] | < 100 nM
O=C1CCCNC(=O)[C@@H](Cc2ccc(NC(=O)[C@H](Cc3ccccc3Cl)NC(=O)Cc3ccccc3)cc2)NC(=O)CC2(CCCC2)CC(=O)N(CCO)CCCCCN1 [Compound 172] | < 100 nM
CC(=O)N[C@@H](Cc1ccccc1Cl)C(=O)Nc1ccc(C[C@H]2NC(=O)CC3(CCCC3)CC(=O)N(CCO)CCCCCNC(=O)CCCNC2=O)cc1 [Compound 173] | < 100 nM
